Here are results for one substance from patent EP0397424A2, “Multiple analysis system” (Biotrack, Inc., priority 1989, dated 1990).

This assay relates to red cells. Description: Red cell lysis by detergent-saturated polyethylene reagent pads (completeness of lysis, red cell fragments). It counts as cell-based. Set-up: key: + = complete lysis or absence of red cell fragments; - = incomplete lysis or presence of red cell fragments. The note with it: blood passed through reagent pad saturated with detergent solution. As to the method: Centered polyethylene reagent pads were saturated with a detergent solution, and the ability of the pad to provide completely lysed blood not containing any red cell fragments was analyzed. Since this sample is also used in the blood donor cartridge as described above to provide sample that is used in an agglutination reaction, inhibition of the agglutination reaction was also measured. Inhibition of agglutination was done subjectively, with 0 indicating little or no inhibition of agglutination and 5 representing the maximum amount of inhibition (essentially no agglutination under normal agglutinating conditions).
Other combinations of detergents can be determined in the same manner by measuring both red cell lysis and inhibition of agglutination and selecting a combination of detergents that provides the desired complete lysis with a minimum of inhibition.

Turning to mellitin, for the setting “+ = absence of fragments”, the “Red Cell Fragments” value is “-”. Besides, the “Incomplete RBC lysis” value (+ = complete lysis) is “+”.
